Numbered stars: 1 amine (or outer) side, 2 acyl side, 3 side chain; on linkers, the order of the positions; unused ones are H or OH. Peptide text beside a SMILES is read from it. * marks the point of attachment. C20 diacid = O=C(O)CCCCCCCCCCCCCCCCCCC(=O)*; γGlu = O=C(O)[C@H](CCC(=O)[*:2])N[*:1]; AEEA = NCCOCCOCC(=O)O
How the values were obtained:
Calcitonin receptor [1] = biological target: T1, Calcitonin receptor (Homo sapiens, UniProt P30988); experiment: Agonist activity at human calcitonin receptor expressed in BHK570 cells assessed as increase in intracellular cAMP concentration incubated for 3 hrs in absence of albumin by CRE luciferase reporter gene assay; type: functional, cell-based
T1 sequence (P30988 whole entry): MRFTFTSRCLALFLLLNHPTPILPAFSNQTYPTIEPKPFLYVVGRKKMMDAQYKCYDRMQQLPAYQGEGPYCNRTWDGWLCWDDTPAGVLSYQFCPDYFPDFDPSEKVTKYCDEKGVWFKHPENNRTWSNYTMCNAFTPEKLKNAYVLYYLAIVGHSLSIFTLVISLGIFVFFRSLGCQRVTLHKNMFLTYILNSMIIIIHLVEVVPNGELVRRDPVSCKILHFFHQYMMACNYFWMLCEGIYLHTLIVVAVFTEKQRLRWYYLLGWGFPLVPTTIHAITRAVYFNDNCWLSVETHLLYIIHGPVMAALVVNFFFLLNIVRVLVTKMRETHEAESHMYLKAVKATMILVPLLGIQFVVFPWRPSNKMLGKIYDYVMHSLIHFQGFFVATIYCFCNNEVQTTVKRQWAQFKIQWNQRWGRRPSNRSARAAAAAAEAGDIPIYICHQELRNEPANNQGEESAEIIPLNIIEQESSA

[2] = biological target: T2, Amylin receptor AMY3; CALCR/RAMP3 (Homo sapiens, UniProt O60896+P30988); experiment: Agonist activity at human amylin receptor expressed in BHK570 cells co-expressing RAMP3 assessed as increase in intracellular cAMP concentration incubated for 3 hrs in presence of 10% FBS by CRE luciferase reporter gene assay; type: functional, cell-based
T2 sequence (P30988 whole entry): T1 sequence (P30988 whole entry)
T2 sequence (O60896 whole entry): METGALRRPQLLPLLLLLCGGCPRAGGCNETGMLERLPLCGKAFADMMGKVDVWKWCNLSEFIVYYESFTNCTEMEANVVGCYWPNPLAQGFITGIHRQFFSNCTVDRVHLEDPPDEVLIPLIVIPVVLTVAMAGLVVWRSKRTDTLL

Calcitonin receptor [3] = biological target: T1, Calcitonin receptor; experiment: Agonist activity at human calcitonin receptor expressed in BHK570 cells assessed as increase in intracellular cAMP concentration incubated for 3 hrs in presence of 10% FBS by CRE luciferase reporter gene assay; type: functional, cell-based
[4] = Stability in pH 7.5 buffer assessed as lag time for fibril formation at 1 uM by Thioflavin T based fluorescence assay; type: physicochemical; conditions: pH 7.5, 1 µM
[5] = Stability in pH 7.5 buffer assessed as compound recovery at 1 uM by Thioflavin T based fluorescence assay; type: physicochemical; conditions: read-out: Drug recovery
[6] = Solubility in 100 mM glycylglycine buffer at pH 3.0 incubated for 18 hrs by UPLC analysis; type: physicochemical
[7] = Solubility in 100 mM glycylglycine buffer at pH 4.0 incubated for 18 hrs by UPLC analysis; type: physicochemical
[8] = Solubility in 100 mM bistrispropane buffer at pH 6.0 incubated for 18 hrs by UPLC analysis; type: physicochemical
[9] = Solubility in 100 mM glycylglycine buffer at pH 5.0 incubated for 18 hrs by UPLC analysis; type: physicochemical
[10] = Solubility in 100 mM bistrispropane buffer at pH 6.5 incubated for 18 hrs by UPLC analysis; type: physicochemical
[11] = Solubility in 100 mM bistrispropane buffer at pH 7.0 incubated for 18 hrs by UPLC analysis; type: physicochemical
[12] = Solubility in 100 mM bistrispropane buffer at pH 7.5 incubated for 18 hrs by UPLC analysis; type: physicochemical
[13] = Solubility in 100 mM bistrispropane buffer at pH 8.0 incubated for 18 hrs by UPLC analysis; type: physicochemical
[14] = biological target: T2, Amylin receptor AMY3; CALCR/RAMP3; experiment: Agonist activity at human amylin receptor expressed in BHK570 cells co-expressing RAMP3 assessed as increase in intracellular cAMP concentration incubated for 3 hrs in absence of albumin by CRE luciferase reporter gene assay; type: functional, cell-based
[15] = biological target: T2, Amylin receptor AMY3; CALCR/RAMP3; experiment: Displacement of [125I]-labeled rat amylin from human amylin receptor expressed in BHK tkts13 whole cells co-expressing RAMP3 incubated for 60 mins by scintillation proximity assay; type: cell-based

Row | Structure (SMILES) | EC50 (Calcitonin receptor [1]) | EC50 [2] | EC50 (Calcitonin receptor [3]) | Time [4] | remaining at 1 µM [5] | solubility at 18 h [6] | solubility at 18 h [7] | solubility at 18 h [8] | solubility at 18 h [9] | solubility at 18 h [10] | solubility at 18 h [11] | solubility at 18 h [12] | solubility at 18 h [13] | EC50 [14] | IC50 [15]
1 | CC(C)C[C@H](NC(=O)[C@H](C)NC(=O)[C@H](C)NC(=O)[C@@H](NC(=O)[C@H](CO)NC(=O)[C@H](CC(C)C)NC(=O)[C@H](CCC(=O)O)NC(=O)[C@H](CO)NC(=O)[C@H](C)NC(=O)COCCOCCNC(=O)COCCOCCNC(=O)COCCOCCNC(=O)COCCOCCNC(=O)CC[C@H](NC(=O)CCCCCCCCCCCCCCCCCCC(=O)O)C(=O)O)[C@@H](C)O)C(=O)NCC(=O)N[C@@H](CCCNC(=N)N)C(=O)N[C@@H](CC(C)C)C(=O)N[C@@H](CO)C(=O)N[C@@H](C)C(=O)N[C@@H](CCC(=O)O)C(=O)N[C@@H](CC(C)C)C(=O)N[C@@H](Cc1cnc[nH]1)C(=O)N[C@@H](CCC(=O)O)C(=O)N[C@@H](CC(C)C)C(=O)N[C@@H](C)C(=O)N[C@H](C(=O)N[C@@H](CC(C)C)C(=O)N1CCC[C@H]1C(=O)N[C@@H](CCCNC(=N)N)C(=O)N[C@H](C(=O)N[C@@H](CCC(=O)O)C(=O)N[C@H](C(=O)NCC(=O)N[C@@H](CO)C(=O)NCC(=O)N[C@@H](CO)C(=O)N1CCC[C@H]1C(N)=O)[C@@H](C)O)[C@@H](C)O)[C@@H](C)O ({C20 diacid-γGlu-AEEA-AEEA-AEEA-AEEA}-ASELSTAALGRLSAELHELATLPRTETGSGSP-NH2) | 0.013 nM | 0.062 nM | 0.025 nM | > 45 h | 100% | ≥ 200 µM | ≥ 200 µM | ≥ 200 µM | ≥ 200 µM | ≥ 200 µM | ≥ 200 µM | ≥ 200 µM | ≥ 200 µM | – | –
2 | CC(C)C[C@H](NC(=O)[C@H](CCCNC(=N)N)NC(=O)CNC(=O)[C@H](CC(C)C)NC(=O)[C@@H](NC(=O)[C@H](C)NC(=O)[C@@H](NC(=O)[C@H](CO)NC(=O)[C@H](CC(C)C)NC(=O)[C@H](CCC(N)=O)NC(=O)[C@H](CO)NC(=O)[C@H](C)NC(=O)CC[C@H](NC(=O)CCCCCCCCCCCCCCCCCCC(=O)O)C(=O)O)[C@@H](C)O)C(C)C)C(=O)N[C@@H](CO)C(=O)N[C@@H](CCC(N)=O)C(=O)N[C@@H](CCC(=O)O)C(=O)N[C@@H](CC(C)C)C(=O)N[C@@H](Cc1cnc[nH]1)C(=O)N[C@@H](CCC(=O)O)C(=O)N[C@@H](CC(C)C)C(=O)N[C@@H](CCC(N)=O)C(=O)N[C@H](C(=O)N[C@@H](Cc1ccc(O)cc1)C(=O)N1CCC[C@H]1C(=O)N[C@@H](CCCNC(=N)N)C(=O)N[C@H](C(=O)N[C@@H](CCC(=O)O)C(=O)N[C@H](C(=O)NCC(=O)N[C@@H](CO)C(=O)N[C@@H](CCC(N)=O)C(=O)N[C@H](C(=O)N[C@@H](Cc1ccc(O)cc1)C(N)=O)[C@@H](C)O)[C@@H](C)O)[C@@H](C)O)[C@@H](C)O ({C20 diacid-γGlu}-ASQLSTAVLGRLSQELHELQTYPRTETGSQTY-NH2) | – | 0.067 nM | 0.036 nM | 1 h | 16% | ≥ 200 µM | ≥ 200 µM | ≥ 200 µM | – | ≥ 200 µM | ≥ 200 µM | ≥ 200 µM | ≥ 200 µM | 0.062 nM | –
3 | CC(C)C[C@H](NC(=O)[C@H](C)NC(=O)[C@H](C)NC(=O)[C@@H](NC(=O)[C@H](CO)NC(=O)[C@H](CC(C)C)NC(=O)[C@H](CCC(=O)O)NC(=O)[C@H](CO)NC(=O)[C@H](C)NC(=O)CC[C@H](NC(=O)CCCCCCCCCCCCCCCCCCC(=O)O)C(=O)O)[C@@H](C)O)C(=O)NCC(=O)N[C@@H](CCCNC(=N)N)C(=O)N[C@@H](CC(C)C)C(=O)N[C@@H](CO)C(=O)N[C@@H](C)C(=O)N[C@@H](CCC(=O)O)C(=O)N[C@@H](CC(C)C)C(=O)N[C@@H](Cc1cnc[nH]1)C(=O)N[C@@H](CCC(=O)O)C(=O)N[C@@H](CC(C)C)C(=O)N[C@@H](C)C(=O)N[C@H](C(=O)N[C@@H](CC(C)C)C(=O)N1CCC[C@H]1C(=O)N[C@@H](CCCNC(=N)N)C(=O)N[C@H](C(=O)N[C@@H](CCC(=O)O)C(=O)N[C@H](C(=O)NCC(=O)N[C@@H](CO)C(=O)NCC(=O)N[C@@H](CO)C(=O)N[C@@H](C)C(N)=O)[C@@H](C)O)[C@@H](C)O)[C@@H](C)O ({C20 diacid-γGlu}-ASELSTAALGRLSAELHELATLPRTETGSGSA-NH2) | 0.04 nM | – | 0.102 nM | > 45 h | 100% | ≥ 200 µM | ≥ 200 µM | ≥ 200 µM | ≥ 200 µM | ≥ 200 µM | ≥ 200 µM | ≥ 200 µM | ≥ 200 µM | 0.067 nM | 1.89 nM
4 | CC(C)C[C@H](NC(=O)[C@H](C)NC(=O)[C@H](C)NC(=O)[C@@H](NC(=O)[C@H](CO)NC(=O)[C@H](CC(C)C)NC(=O)[C@H](CCC(=O)O)NC(=O)[C@H](CO)NC(=O)[C@H](C)NC(=O)CC[C@H](NC(=O)CCCCCCCCCCCCCCCCCCC(=O)O)C(=O)O)[C@@H](C)O)C(=O)NCC(=O)N[C@@H](CCCNC(=N)N)C(=O)N[C@@H](CC(C)C)C(=O)N[C@@H](CO)C(=O)N[C@@H](C)C(=O)N[C@@H](CCC(=O)O)C(=O)N[C@@H](CC(C)C)C(=O)N[C@@H](Cc1cnc[nH]1)C(=O)N[C@@H](CCC(=O)O)C(=O)N[C@@H](CC(C)C)C(=O)N[C@@H](C)C(=O)N[C@H](C(=O)N[C@@H](CC(C)C)C(=O)N1CCC[C@H]1C(=O)N[C@@H](CCCNC(=N)N)C(=O)N[C@H](C(=O)N[C@@H](CCC(=O)O)C(=O)N[C@H](C(=O)NCC(=O)N[C@@H](CO)C(=O)NCC(=O)N[C@@H](CO)C(=O)N[C@@H](Cc1ccccc1)C(N)=O)[C@@H](C)O)[C@@H](C)O)[C@@H](C)O ({C20 diacid-γGlu}-ASELSTAALGRLSAELHELATLPRTETGSGSF-NH2) | 0.04 nM | 0.094 nM | 0.073 nM | > 45 h | 100% | ≥ 200 µM | ≥ 200 µM | ≥ 200 µM | – | ≥ 200 µM | ≥ 200 µM | ≥ 200 µM | ≥ 200 µM | 0.05 nM | 1.36 nM
5 | CC(C)C[C@H](NC(=O)[C@H](C)NC(=O)[C@H](C)NC(=O)[C@@H](NC(=O)[C@H](CO)NC(=O)[C@H](CC(C)C)NC(=O)[C@H](CCC(=O)O)NC(=O)[C@H](CO)NC(=O)[C@H](C)NC(=O)COCCOCCNC(=O)COCCOCCNC(=O)COCCOCCNC(=O)COCCOCCNC(=O)COCCOCCNC(=O)CC[C@H](NC(=O)CCCCCCCCCCCCCCCCCCC(=O)O)C(=O)O)[C@@H](C)O)C(=O)NCC(=O)N[C@@H](CCCNC(=N)N)C(=O)N[C@@H](CC(C)C)C(=O)N[C@@H](CO)C(=O)N[C@@H](C)C(=O)N[C@@H](CCC(=O)O)C(=O)N[C@@H](CC(C)C)C(=O)N[C@@H](Cc1cnc[nH]1)C(=O)N[C@@H](CCC(=O)O)C(=O)N[C@@H](CC(C)C)C(=O)N[C@@H](C)C(=O)N[C@H](C(=O)N[C@@H](CC(C)C)C(=O)N1CCC[C@H]1C(=O)N[C@@H](CCCNC(=N)N)C(=O)N[C@H](C(=O)N[C@@H](CCC(=O)O)C(=O)N[C@H](C(=O)NCC(=O)N[C@@H](CO)C(=O)NCC(=O)N[C@@H](CO)C(=O)N1CCC[C@H]1C(N)=O)[C@@H](C)O)[C@@H](C)O)[C@@H](C)O ({C20 diacid-γGlu-AEEA-AEEA-AEEA-AEEA-AEEA}-ASELSTAALGRLSAELHELATLPRTETGSGSP-NH2) | 0.01 nM | 0.066 nM | 0.027 nM | > 45 h | 100% | ≥ 200 µM | ≥ 200 µM | ≥ 200 µM | ≥ 200 µM | ≥ 200 µM | ≥ 200 µM | ≥ 200 µM | ≥ 200 µM | 0.015 nM | –

Reference: ChEMBL document CHEMBL4420076, “Amylin and calcitonin receptor agonist” (2017)
